Here are results for nine compounds from patent publication US10391098B2, “Antisense antibacterial compounds and methods” (priority 2014, dated 2019).

In one series the test system is E. coli SMS-3-5. The series can be described thus: MIC of classical antibiotics with added PPMOs that target resistance genes. In kind it is cell-based. The source says: FIGS. 15A-15B show the minimum inhibitory concentration (MIC) of classical antibiotics with added PPMOs that target resistance genes in E. coli SMS-3-5. (FIG. 15A) MIC of ampicillin with blaT-(RXR)4XB (PPMO#66). (FIG. 15B) MIC of chloramphemicol with cmlA-(RXR)4XB (PPMO#67). N=3.
Minimal Inhibitory Concentration Assays.
Modulating antibiotic resistance with PPMOs could be an alternative therapeutic strategy. As proof of concept, PPMOs were designed to target specific, non-essential antibiotic resistance genes. blaT is part of the TEM beta-lactamase family and is found in environmental strains of E. coli, like SMS-3-5.

The test system of series [1] is multi-drug-resistant strain of Acinetobacter baumannii (AYE). The series can be described thus: MIC of colistin, meropenem, tobramycin with added PPMO (microdilution), synergy by isoboles. Particulars: for MIC: Acinetobacter baumannii. (Broth dilution looks for growth in wells or tubes with falling amounts of substance.)
Experimental: Minimal Inhibitory Concentration Assays. Minimal inhibitory concentration (MIC) assays were performed in Mueller Hinton II medium using the microdilution method as described by the Clinical and Laboratory Standards Institute (CLSI). Optical density (OD) of cultures was read in a microplate spectrophotometer at 595-600 nm. After 18-20 hours of aerobic growth (200-250 rpm) at 37° C., 100 μl cultures with an OD of <0.06 were scored as no growth.
Synergy Studies. MICs were performed with a PPMO and a classic antibiotic (as indicated) in a 96 well plate. The PPMO was diluted first horizontally down the plate and the classic antibiotic was diluted across the rows of the plate. Inhibition was determined by visual observation and OD600 (see Berenbaum et al., J Antimicrob Chemother 12:555-563, 1983; and Berenbaum, J Infect Dis 137:122-130, 1978). […] Synergy was quantified using the method of isoboles as described (see Tallarida, Genes Cancer. 2:1003-8, 2011): (Effective concentration of antibiotic/MIC of antibiotic)+(Effective concentration of PPMO/MIC of PPMO). Calculated values less than 1 indicated synergy.
The MIC of the antibiotics colistin, meropenem, and tobramycin was measured using the microdilution method of the Clinical Laboratory Standards Institute in a 96-well microtiter plate format. Multiple, identical dilution series of each antibiotic were included on each microtiter plate. In each dilution series of antibiotic, a fixed amount of PPMO was added. Each dilution series of antibiotic included a different concentration of PPMO.
Series [2] relates to A. baumannii AYE. Put plainly: MIC of tobramycin with adeA PPMO in nutrient rich and minimal media. In kind it is cell-based. Particulars: for MIC of tobramycin with adeA PPMO: 8 μM adeA PPMO.
For series [3], the system named is Acinetobacter spp. (~34 strains). Put plainly: PPMO MIC (IC75) in panel of Acinetobacter strains, rich and minimal media. Particulars: nutrient rich MHII media.
Experimental: Bacteria. Bacterial strains were obtained through the clinical microbiology lab at UT Southwestern unless otherwise noted. Strains also included those purchased through ATCC, the E. coli Genetic Stock Center (Yale University), or received from collaborators. They included both genome-sequenced isolates as well as clinical isolates with varying levels of antibiotic resistance. Single colonies were grown aerobically to stationary phase (1-2 mLs at 37° C., 250 rpm) in Mueller Hinton cation-adjusted (MH II) broth (Becton-Dickinson Difco BBL, Franklin Lakes, N.J., USA). The OD600 was taken and a working stock of 5×10^5 was generated based on the individual strain's colony forming units (CFU)/mL/OD. Working stocks were diluted in 150 mM NaCl and plated on tryptic-soy agar w/5% sheep blood plate (Remel, Lenexa, Kans.) to verify the starting concentration. For minimal nutrient conditions, E. coli was incubated in MOPS minimal medium (Neidhart et al., J Bacteriol 119:736-747, 1974), and Acinetobacter was performed in AB minimal media (Agrobacterium minimal media) with 10 mM citrate (Clark, J Mol Biol 23:99-112, 1967).
Minimal Inhibitory Concentration Assays. […] Optical density (OD) of cultures was read in a microplate spectrophotometer at 595-600 nm. After 18-20 hours of aerobic growth (200-250 rpm) at 37° C., 100 μl cultures with an OD of <0.06 were scored as no growth. […]
Series [4] has as its system A. baumannii AYE. Put plainly: Transmission electron microscopy of PPMO-treated bacteria. In kind it is cell-based. As to conditions: 40 μM.

Like-named read-outs stand apart in the source and are kept apart here. {(RXR)4XB} = cell-penetrating peptide (R arginine, X 6-aminohexanoic acid, B beta-alanine), conjugated via its C-terminal beta-alanine linked through a pip-PDA moiety; {TEG} = triethylene glycol end group (as defined in the publication); {Acetyl} = acetyl cap A value given as a limit tells only on which side of the number the result lay.

As a reminder, the MIC is the lowest concentration that inhibits growth of the organism.

Turning to `O=C(N[C@H](CO)[C@H](O)c1ccc([N+](=O)[O-])cc1)C(Cl)Cl` [chloramphenicol, reference compound], the MIC in the series with E. coli SMS-3-5 (Escherichia coli, SMS35, chloramphenicol alone) was greater than 512 µg/mL.

On to `C[C@@H](O)[C@H]1C(=O)N2C(C(=O)O)=C(S[C@@H]3CN[C@H](C(=O)N(C)C)C3)[C@H](C)[C@H]12` [meropenem, reference compound], for which the MIC in series [1] (read-out: MIC of meropenem) was determined as 2 µg/mL.

Turning to `NC[C@H]1O[C@H](O[C@H]2[C@H](O)[C@@H](O[C@H]3O[C@H](CO)[C@@H](O)[C@H](N)[C@H]3O)[C@H](N)C[C@@H]2N)[C@H](N)C[C@@H]1O` [tobramycin, reference compound], the “MIC of tobramycin alone” value with A. baumannii AYE [2] (AB Minimal Media) turned out to be 64 µg/mL. In addition, the MIC is 64 µg/mL with A. baumannii AYE [2] (Acinetobacter baumannii, MHII, read-out: MIC of tobramycin alone) and 64 µg/mL in series [1] (read-out: MIC of tobramycin).

For the compound “PPMO#6: acpP PPMO ATATCGCTCAC; 5' (RXR)4XB, 3' acetyl (all phosphorodiamidate morpholino (PMO), 5' {(RXR)4XB}, 3' {Acetyl}; further chemistry not given here)”, the “IC75 MIC” value in series [3] was determined as 2 µM.

As to “PPMO#7: acpP PPMO ATATCGCTCAC; 5' TEG, 3' (RXR)4XB (all phosphorodiamidate morpholino (PMO), 5' {TEG}, 3' {(RXR)4XB}; further chemistry not given here)”, the “cell morphology by TEM” value in the series on A. baumannii AYE [4] (6 hours of incubation, MHII media) is reported as “cell wall disruption”. In the series on A. baumannii AYE [4] (data not shown), the “earliest time at which cell wall disruption was seen” value is 3 h. The “IC75 MIC” value in series [3] came to 4 µM. Moreover, the “MIC of colistin in the presence of PPMO” value in series [1] (2 μM of PPMO) came to 0.25 µg/mL. Moreover, in series [1] (4 μM PPMO), the “MIC of tobramycin in the presence of PPMO” value came out at 2 µg/mL. In addition, the “synergy (method of isoboles; values less than 1 indicate synergy), colistin + PPMO” value in series [1] (colistin) is reported as 0.75. Besides, in series [1] (meropenem), the “synergy (method of isoboles), meropenem + PPMO” value is listed as 0.75. Moreover, the “synergy (method of isoboles), tobramycin + PPMO” value in series [1] (tobramycin) was found to be 0.625.

Consider “PPMO#65: adeA PPMO ATACTGTCCAA; 5' TEG, 3' (RXR)4XB (listed as DNA, chemistry not fully specified)”, for which the entries for the “MIC of tobramycin with adeA PPMO” value in the series with A. baumannii AYE [2] (MHII) and with A. baumannii AYE [2] (minimal media) were 4 µg/mL and 1 µg/mL, respectively.

Consider “PPMO#66: blaT PPMO CTCTTCCTTTT; 5' TEG, 3' (RXR)4XB (listed as DNA, chemistry not fully specified)”, for which the “effect of increasing concentrations of blaT PPMO on MIC of ampicillin” value in the series on E. coli SMS-3-5 (FIG. 15A) was “progressively decreased”.

For “PPMO#67: cml PPMO TCCTTCTGATT; 5' TEG, 3' (RXR)4XB (listed as DNA, chemistry not fully specified)”, the “effect of increasing concentrations of cmlA PPMO on MIC of chloramphenicol” value with E. coli SMS-3-5 (FIG. 15B) is given as “progressively decreases in a dose-dependent fashion”.

In the case of colistin [reference compound], in series [1] (without PPMO), the MIC of colistin is 1 µg/mL.
